Test results from patent US9668960B2, “Methods useful in studying or modulating skin or hair pigmentation, plant extracts for use in compositions and cosmetic care method” (L V M H RECHERCHE, priority 2008, dated 2017).

Assays:
Myo-X = Myo-X expression by double immunolabelling in normal human melanocytes; format: cell-based
Method: Immunofluorescence staining: For EM:KC co-culture studies fully matched melanocytes (p4) and keratinocytes (p2) were seeded onto 8-well Lab-Tek® chamber slides at a cell density of 1×10^4 cells/well and in a ratio of 1 melanocyte to 10 keratinocytes. Co-cultures were maintained overnight (16 h) in a mixture of full K-SFM and MEM (co-culture medium) to allow cell attachment, followed by medium replenishment for a further 24 h. Cells were then fixed in ice-cold methanol for 10 min at −20° C., washed in PBS and then blocked with 10% donkey serum for the detection of protein expression in filopodia.
For double labelling experiments the first primary antibody, Myo-X (1:100) (Santa Cruz, Calif., USA) was applied overnight at 4° C., followed by incubation with FITC-conjugated secondary antibody (1:100) for 1 h at room temperature. The second primary antibody, either cytokeratin (1:100) (Abeam, Cambridge, UK) or β-Actin (1:100) (Santa Cruz, USA) or Fascin (1:100) (Santa Cruz, USA) or NKi/beteb (1:30) (Monosan) was applied for 1 h at room temperature followed by a TRITC-conjugated secondary antibody (1:100) (Jackson Immunoresearch Laboratories, Inc., West Grove, USA). DAPI (Vector Laboratories, Burlingame, Calif.) was used to stain nuclei. Images were captured with a cooled Hamamatsu digital camera using a 100× objective and post-processed using Paint Shop Pro (Jasc Software Ver. 7. CA, USA). Negative controls included the omission of primary antibody and replacement with non-immune serum from secondary antibody host and inclusion of secondary antibodies.
Myo-X was also detected in EM filopodia.

tyrosinase = test: DOPA oxidase detection for tyrosinase activity in pigmented normal human melanocytes; format: cell-based; conditions: 72 h; for Changes in tyrosinase activity, F52 EMc % change / % Change in EM Tyrosinase Activity vs. Basal EM level (i.e. 0), EM: L-18 0.001%, L-23 0.05 μg/ml, IBMX 100 μM, niacinamide 10 μM; for Changes in tyrosinase activity, F52 EMc % change: L-19 1%, L-20 0.5%, L-21 10 μg/ml, L-22 1%, NH4Cl 100 μM, vs basal; for % Change in EM Tyrosinase Activity vs. Basal EM level (i.e. 0), EM: EM monoculture (F52)
Method: The cells were prepared for SDS-PAGE and transblotted onto PVDF membranes. 70 μg of un-reduced protein extract without boiling was pipetted into the appropriate wells of 8% SDS-PAGE gels. […] The L-DOPA reaction was stopped by washing the membrane in distilled water and the membrane was scanned. […] In addition IBMX and NH4Cl (positive melanocytic modulators) and niacinamide (negative modulator) were used as controls. […] Normal human epidermal melanocytes (Female-52; p5) were treated for 72 h with L-18 (0.001%), L-19 (1%), L-20 (0.5%), L-21 (10 μg/ml), LVMH-22 (1%) and L-23 (0.05 μg/ml). Controls: Melanocytic modulators: IBMX (100 μM), NH4Cl (100 μM), and niacinamide (10 μM). (A) Protein extracts were electroblotted and membranes stained with L-DOPA for the estimation of tyrosinase activity.

SMILES	Myo-X expression in EM (immunolabelling, words) (Myo-X; compared with untreated cells)	Myo-X localization in EM filopodia (Myo-X; compared with untreated cells)	overall number of filopodia (Myo-X; total number of yellow spots beyond EM dendritic tips)	Changes in tyrosinase activity, F52 EMc % change (tyrosinase)	% Change in EM Tyrosinase Activity vs. Basal EM level (i.e. 0), EM (tyrosinase)	effect on tyrosinase (dopa oxidase) activity compared with basal levels (tyrosinase; normal melanocytes (EM), doses as E5)
CC(C)Cn1c(=O)n(C)c(=O)c2[nH]cnc21 [IBMX]	increased the expression of Myo-X	enhanced Myo-X localization in EM filopodia	increased	+72.47%	+56.51%	dramatic increase in dopa oxidase activity of tyrosinase
NC(=O)c1cccnc1 [niacinamide]				−4.58%	−2.12%	
